Experimental data: patent US6544541B1, “Devices and compounds for treating arterial restenosis” (Cardiovascular Solutions, Inc., priority 1999, dated 2003)

How the values were obtained:
[1] = system: H4IIE hepatoma cells; test: DNA synthesis (3H-thymidine incorporation) in H4IIE cells; format: cell-based; settings: H4IIE cells
Protocol: Incorporation of uridine or thymidine was used to define the change in rate of […] synthesis, respectively, in response to a mitogen such as insulin. Specifically, quiescent H4IIE cells were prepared by placing the cultures (in 24-well dishes) into serum-free a-minimal essential medium for 3 days. It is of note that the normal growth media for H4IIE cells is α-MEM containing 10% fetal bovine serum (FBS). After reaching quiescence, the cells were stimulated with 1 μM insulin and incubated for either 6 hours or 24 hours in the presence of 1 μCi/ml ^3H-uridine or ^3H-thymidine, respectively. Cells were subsequently lysed with detergent and the nucleic acids precipitated with 5% trichloroacetic acid. The precipitated material was collected on glass fibre filters and the radioactive content measured by scintillation counting. […] Furthermore, while complete inhibition of DNA synthesis by MIBG is obtained at approximately 20 μM, higher concentrations decrease basal DNA synthesis below control levels.

[2] = system: H4IIE cells; test: lactate dehydrogenase (LDH) release toxicity assay; format: cell-based; settings: 96 hours; FIG. 5
Protocol: To address the issue of MIBG toxicity, lactate dehydrogenase (LDH) release was measured after incubation with MIBG or MIBA. Quiescent H4IIE cells were prepared in 96-well dishes and treated with various concentrations of either MIBG or MIBA for 96 hours. To quantify the release of LDH from the cells, which only occurs if the cells are damaged or killed by the treatment, 100 μl of culture medium was transferred to a fresh dish. To this was added 100 μl of dye/catalyst mixture (Boehringer Mannheim cytotoxicity detection kitTM), and the samples were subsequently incubated for 30 minutes at 37° C. Absorbance of the solution was monitored at 490 nm. The colour intensity indicates the relative LDH content in the test samples. […] As a consequence, it is speculated that changes in LDH release may be coupled to non-toxic and reversible alterations in mitochondrial metabolism or membrane integrity as a result of MIBG treatment.

[3] = system: H4IIE hepatoma cells; test: flow cytometry, bromodeoxyuridine incorporation in proliferating cells; format: cell-based; settings: 25 μM MIBG, 48 hours; FIG. 4
Protocol: Additional verification that MIBG blocked cell proliferation was obtained using flow cytometry analysis. Proliferating H4IIE cells (<40% confluent) were incubated for 48 hours in the presence or absence (untreated control or containing MIBA) of 25 μM MIBG. The cells were pulse labeled with bromodeoxyuridine (BrdU) 2 hours before harvest to label replicating DNA. Cells were released by trypsinization, collected by centrifugation and permeabilized with Triton X-100 (1%). Replicated DNA was labeled with an anti-BrdU antibody conjugated to FITC (fluorescein isothiocyanate), while total DNA was labeled with propidium iodide. The FITC and propidium iodide labels were detected at 514 nm and 600 nm, respectively, with a Coulter flow cytometer™ (excitation wavelength 488 nm), and number of cells containing these fluors were quantified. The data were plotted as cells with propidium iodide versus cells with BrdU. […] To summarize, the results described above indicate that MIBG is a potent inhibitor of cell proliferation. Furthermore, the cellular process affected by MIBG is active throughout the cell cycle. This conclusion is based on the fact that there is no accumulation of cells at a specific phase of the cell cycle. In addition, it is of note that there is no apparent decrease in cell number or an increase in smaller cells, both characteristics of cell death.

[4] = system: porcine coronary artery smooth muscle cells
[5] = system: smooth muscle cells derived from human arterial conduits; test: DNA synthesis and cytotoxicity in human smooth muscle cells; settings: human cells; FIG. 26B
[6] = human studies; cited from earlier work
[7] = system: porcine coronary arteries; test: coronary artery organ culture after balloon angioplasty (neointimal index); settings: organ culture, relative to MIBG; FIG. 24
Text: Although smooth muscle cell cultures can be used to determine the ability of a compound to inhibit proliferation, these cells are not good indicators of a compound's ability to prevent restenosis. This statement stems from the fact that several processes, including cell migration, proliferation and synthesis of ECM degrading enzymes, must be coordinately activated in order for restenosis to occur. A novel organ culture system has therefore been developed in order to test the effectiveness of MIBG and other compounds at preventing restenosis (Wilson et al, 1999, Cardiac Res 42: 761-772). In brief, hearts are transported from the abattoir to the laboratory on ice. The left descending coronary artery is exposed and a balloon catheter is inserted past the first bifurcation. The balloon is inflated, and after 1 minute is deflated and withdrawn. The damaged region (approximately 20 mm in length) is excised, cut into 4 pieces of 5 mm and each piece is placed into an individual well of a culture dish. These segments can be maintained in media containing 20% serum for up to 21 days. Upon harvest of the tissue, typically after 14 days, the vessel segments are placed into resin for histological analysis. Sections are prepared from vessel segments after removal of the first 1.5 mm. […] This file is imported into SigmaScan™, and staining in the areas of the intimal and medial layers quantified. […]

[8] = system: porcine femoral artery; test: balloon angioplasty of the porcine femoral artery in vivo; parameters: species or system pigs; settings: in vivo femoral angioplasty, relative to MIBG; FIG. 25
Text: To test the effectiveness of MIBG under in vivo conditions, this compound was applied to the femoral artery after balloon angioplasty. This model provided a means of testing both MIBG and the method of application. Specifically, male castrated farm pigs (25-30 kg) were anaesthetized and maintained on isoflurane throughout the procedure. With the pig in a supine position, the left femoral artery was exposed from the bifurcation of the femoral and superficial femoral arteries to the point of insertion of the femoral artery into the groin. A mixture of nitroglycerin and papaverine was applied to the vessel and the area was covered with a saline-soaked sponge to keep the tissues moist. The right femoral artery was also exposed, treated and covered with a sponge. The left femoral was then clamped at both groin insertion (proximal) and bifurcation (distal) points, and an arteriotomy made at the bifurcation. The balloon (6.0×20 mm) was inserted through the arteriotomy in a retrograde manner (i.e. toward the groin) to a position 20 mm from the arteriotomy and the proximal clamp removed. The balloon was inflated for 1 minute, deflated and carefully removed, and the arteriotomy was closed with 6.0 ProleneTM suture. MIBG in combination with a biocompatible glue, in this example, Tisseel®, was applied to the surface of the vessel extending from the arteriotomy to the proximal region past the site of balloon inflation. The fibrin glue ensured that MIBG slowly diffused into the vessel. Furthermore, the fibrin glue helps to retain MIBG at the site for several days. The right femoral was handled as described above. […] The extent of restenosis was subsequently monitored by morphometry. […] Digital images were captured with a DAGE-MTI CCD camera and analyzed with SigmaScan Software. The neointimal and medial areas are quantified and used to calculate the neointimal index: neointimal area/medial area. […] Even though the vehicle cannot be detected after 14 days, we conclude that it remains for the minimum period necessary.

[9] = system: smooth muscle cells; test: Boyden chamber smooth muscle cell migration in response to Angiotensin II; format: cell-based; settings: 20 μM; 10 μM Angiotensin II in lower compartment; FIG. 17
Protocol: Specifically, smooth muscle cells were seeded into the upper chamber of a Boyden chamber, which consists of two compartments that are separated by a permeable membrane. […] Specifically, migration to the lower compartment was determined by counting cells on the underside of the membrane. Data are presented as means ± standard error for six independent determinations.

[10] = system: cell growth; settings: cited from earlier work
[11] = system: Friend erythroleukemia cells; test: Friend cell differentiation; format: cell-based
Text: It is of note however that MIBG acts at a point in the differentiation pathway that is distinct from 3-aminobenzamide.

NCc1cccc(I)c1 [MIBA, meta-iodobenzylamine]
inhibition of DNA synthesis (thymidine incorporation) [1]: does not inhibit DNA synthesis
concentration at which increased LDH release is detectable [2]: ≥ 200 µM
bromodeoxyuridine incorporation (DNA synthesis) [3]: identical to those observed in the control cells

CC(C=NNC(=N)N)=NNC(=N)N [methylGAG, methylglyoxal bis-(guanylhydrazone)]
inhibition of thymidine incorporation, potency relative to MIBG [4]: slightly more potent inhibitor than MIBG
toxicity relative to MIBG [4]: less toxicity
effectiveness in preventing cell growth ([4]; smooth muscle cells, relative to MIBG): as effective as MIBG
effectiveness in preventing cell growth ([1]; relative to MIBG): as effective as MIBG
toxicity relative to MIBG [5]: less toxicity
threshold of tolerance relative to MIBG [6]: higher threshold of tolerance
effectiveness in preventing neointimal formation [7]: as effective as MIBG
effectiveness in preventing neointimal formation [8]: as effective as MIBG
smooth muscle cell migration [9]: inhibited smooth muscle cell migration

benzylguanidine [BG]
inhibition of thymidine incorporation [4]: did not inhibit thymidine incorporation
inhibition of DNA synthesis (thymidine incorporation) [1]: did not inhibit thymidine incorporation

NC(=O)c1cccc(N)c1 [3-aminobenzamide]
concentrations at which cell growth is inhibited [10]: ≥ 1 mM
effect on Friend cell differentiation [11]: inhibits the commitment phase

N=C(N)NCCCCN [agmatine]
inhibition of DNA synthesis in response to serum treatment [4]: does not inhibit DNA synthesis
